# Laboratory results from patent US5874438A, “2,2'-bridged bis-2,4-diaminoquinazolines” (Bayer Aktiengesellschaft, priority 1996, dated 1999).
# Legend:
# [1] = biological target: apamin-sensitive potassium channels; test: Binding of ^125 I-apamin to bovine cerebral membrane; settings: ^125 I-apamin 30 pM, calf hippocampus membranes, 60 min on ice
# Description: (§1) The compounds according to the invention are ligands for apamin-sensitive potassium channels. This can be shown by studying the affinity for apamine binding sites, e.g. in bovine cerebral membranes.
# 1) Binding of ^125 I-apamin to bovine cerebral membrane
# Calf brains were obtained from the local abattoir. The hippocampus was prepared on ice and a membrane suspension was made up by homogenization twice in buffer (100 mM Tris-HCl, KCl 5 mM, pH 7.4) and centrifugation at 43,000×g. In a total volume of 500 μl, the incubation mixture contained 200 μg of membrane protein, 30 pM ^125 I-apamine and test substances in the concentration range 1×10^-9 to […]. The non-specific binding of ^125 I-apamin was determined in the presence of 1×10^-7 M unlabelled apamin.
# After preincubation for 30 min at room temperature (test substances and membrane homogenate), the samples were placed on ice for 10 min before the radioligand was added. The main incubation time was 60 min on ice. When the reaction time had elapsed, an excess of ice-cooled incubation buffer was added to each sample and the mixture was filtered with suction through cellulose acetate/nitrate membrane filters. The amount of bound ^125 I-apamin was measured with a gamma counter.
# [2] = tested on: potassium channel (PC12 cells); test: Non-radioactive Rb^+ efflux assay for the identification of potassium channel modulators; type: cell-based; settings: 50 mM KCl stimulation, 10 min
# Description: as §1
# 2) Non-radioactive Rb^+ efflux assay for the identification of potassium channel modulators
# The potassium in PC12 cells is exchanged with rubidium, which is not present in the cells. This exchange is performed by incubating the cells over a period of 4 h in a physiological buffer containing 5.4 mM RbCl without KCl. This rubidium subsequently serves as a tracer for potassium.
# The cells laden with Rb^+ in this way are washed three times and then stimulated by depolarization with 50 mM KCl to open potassium channels (10 min), causing Rb^+ to flow out of the cells into the supernatant according to the concentration gradient. The rubidium contents in the cell supernatant and in the residual cells after they have been lysed with 1% Triton X-100 are then determined by means of atomic absorption spectroscopy. The relative proportion of rubidium in the cell supernatant (=Rb^+ efflux) is used as a measure of the potassium channel activity.
# The effect of substances on the channel activity is measured by co-incubating the test substance over the ten-minute stimulation period and determining its effect on the Rb^+ efflux in the manner described above.
SMILES,Ki [1],% inhibition of the Rb efflux at a test concentration of 10 μM [2]
"CCN(CC)c1nc(N2CCCN(c3nc(N(CC)CC)c4ccccc4n3)CCC2)nc2ccccc12 [Example 1, 1,5-Bis-(4-diethylaminoquinazolin-2-yl)-[1,5]-diazoxane]",340 nM,
"CCN(CC)c1nc(NCC23C=CC(CC2)C2CN(c4nc(N(CC)CC)c5ccccc5n4)CC23)nc2ccccc12.Cl.Cl (stereo not shown) [Example 2, N^2-[4-(4-Diethylamino-quinazolin-2-yl)-4-aza-tricyclo[5.2.2.0^2,6]undec-8-en-1-yl-methyl]-N^4,N^4-diethyl-quinazoline-2,4-diamine dihydrochloride]",,72%
"CCN(CC)c1nc(N2CCCN(c3nc(N(CC)CC)c4ccccc4n3)CC2)nc2ccccc12 [Example 3, 1,4-Bis-(4-diethylamino-2-quinazolyl)-1,4-diazacycloheptane]",,63%
"CCN(CC)c1nc(N2CCCN(c3nc(N(CC)CC)c4cc(Cl)ccc4n3)CC2)nc2ccc(Cl)cc12 [Example 4, 1,4-Bis-(6-chloro-4-diethylamino-2-quinazolyl)-1,4-diazacycloheptane]",140 nM,
